The values that follow come from PubChem BioAssay (NCI).

Each structure is given as a SMILES string. “And” between values parts separate entries of the source, which are not always exact repeats. Identical values can stand only once.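 Briefly, cells in 96-well plates were exposed to five compound concentrations for 48 h, and endpoints were estimated by linear interpolation. GI50 marks 50% less growth. At the TGI there is no net growth.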

Test systems include M14 melanoma; SK-OV-3 ovarian; PC-3 prostate; SNB-75 CNS; HCT-116 colon; RPMI-8226 leukemia; MALME-3M melanoma; NCI-H460 lung; NCI-H23 lung; KM12 colon; DU-145 prostate.
Experiment in all cases: growth of human tumour cells (NCI), 48 h

Regarding `CC(C)CCC[C@@H](C)C1CCC2[C@@H]3CCC4CC(CCC=C(c5cc(Cl)c(OC(=O)c6ccccc6)c(C(=O)O)c5)c5cc(Cl)c(OC(=O)c6ccccc6)c(C(=O)O)c5)CC[C@]4(C)C3CC[C@@]21C` (some centres not stated), the TGI in the assay with M14 melanoma was 29.3 µM; in the assay with SK-OV-3 ovarian it was over 100 µM; in the assay on PC-3 prostate it was over 100 µM; in the assay on SNB-75 CNS, over 100 µM; in the assay on HCT-116 colon, over 100 µM; with RPMI-8226 leukemia, over 100 µM. In addition, the TGI in the assay with MALME-3M melanoma, in the assay with NCI-H460 lung, in the assay on NCI-H23 lung, in the assay on KM12 colon and in the assay with DU-145 prostate was over 100 µM throughout.
Regarding `CCCCc1c2c(nc3c1CCC/C3=C\c1ccccc1)C(=O)C(CN(C)C)CC2` (configuration not stated), the TGI in the assay with M14 melanoma was 33.7 µM; in the assay with SK-OV-3 ovarian, 40.6 µM; in the assay on PC-3 prostate, 29.1 µM; in the assay with SNB-75 CNS, 27 µM; in the assay with HCT-116 colon, 32.6 µM; with RPMI-8226 leukemia, 31.8 µM. For the same compound, the TGI in the assay with MALME-3M melanoma is 40.4 µM; in the assay with NCI-H460 lung, 34.5 µM; with NCI-H23 lung, 31.8 µM; in the assay on KM12 colon, 33.6 µM; in the assay on DU-145 prostate, 29.1 µM.
For `CC1(C)C(=O)N=C(N)N1C(=O)OCc1ccccc1`, the TGI with M14 melanoma, in the assay with SK-OV-3 ovarian, in the assay on PC-3 prostate, with SNB-75 CNS, in the assay on HCT-116 colon and in the assay on RPMI-8226 leukemia was over 100 µM throughout. Moreover, the TGI with MALME-3M melanoma, with NCI-H460 lung, in the assay on NCI-H23 lung, in the assay with KM12 colon and with DU-145 prostate was over 100 µM throughout.
With `C=CCOCn1ccc(=O)[nH]c1=O`, the TGI with M14 melanoma, with SK-OV-3 ovarian, in the assay with PC-3 prostate, in the assay with SNB-75 CNS, with HCT-116 colon and in the assay on RPMI-8226 leukemia was over 100 µM throughout. In addition, the TGI in the assay on MALME-3M melanoma, in the assay with NCI-H460 lung, in the assay on NCI-H23 lung, with KM12 colon and in the assay with DU-145 prostate was over 100 µM each time.
With `O=c1c2cccnc2nc2ccc3c[nH][nH]c3c12`, the TGI in the assay on M14 melanoma, in the assay on SK-OV-3 ovarian, with PC-3 prostate, in the assay on SNB-75 CNS, in the assay on HCT-116 colon and with RPMI-8226 leukemia was over 10 µM throughout. The TGI in the assay on MALME-3M melanoma, with NCI-H460 lung, with NCI-H23 lung, in the assay with KM12 colon and with DU-145 prostate was over 10 µM each time.
In the case of `CCOC(=O)CCC(NC(=O)c1ccc(Nc2nc3cc(C(F)(F)F)ccc3nc2-c2ccccc2)cc1)C(=O)OCC` (configuration not stated), the TGI in the assay with M14 melanoma, in the assay on SK-OV-3 ovarian, with PC-3 prostate, with SNB-75 CNS, in the assay on HCT-116 colon and in the assay on RPMI-8226 leukemia was over 100 µM in each case. Besides, the TGI with MALME-3M melanoma, in the assay on NCI-H460 lung, in the assay with NCI-H23 lung, with KM12 colon and with DU-145 prostate was over 100 µM each time.
On to `O=C1CC2(CCC(O)(c3ccc(Cl)cc3)C(C(=O)c3ccc(Cl)cc3)C2)C(=O)c2ccccc2N1` (configuration not stated), for which the TGI with M14 melanoma was over 100 µM; in the assay with SK-OV-3 ovarian, 35.1 µM; with PC-3 prostate it was over 100 µM; in the assay on SNB-75 CNS, 3.82 µM; in the assay with HCT-116 colon, over 100 µM; with RPMI-8226 leukemia, over 100 µM. The TGI is over 68.4 µM with MALME-3M melanoma; over 100 µM in the assay on NCI-H460 lung; 53.8 µM in the assay with NCI-H23 lung; over 100 µM in the assay on KM12 colon; over 36.8 µM in the assay on DU-145 prostate.
With `CC(=O)O[C@H]1C(=O)[C@@]2(C)[C@H]([C@H](OC(=O)C3CCCCC3)[C@]3(O)C[C@H](OC(=O)[C@H](O)[C@@H](NC(=O)C4CCCCC4)C4CCCCC4)C(C)=C1C3(C)C)[C@]1(OC(C)=O)CO[C@@H]1C[C@@H]2O`, the TGI was 1.2 µM in the assay on M14 melanoma; 19.2 µM in the assay with SK-OV-3 ovarian; 1.96 µM in the assay with PC-3 prostate; 1.12 µM in the assay on SNB-75 CNS; 3.33 µM in the assay with HCT-116 colon; 3.67 µM in the assay on RPMI-8226 leukemia. The TGI in the assay on MALME-3M melanoma is 4.96 µM; with NCI-H460 lung it was 3.87 µM; in the assay on NCI-H23 lung, 0.438 µM; in the assay on KM12 colon, 5.53 µM; with DU-145 prostate it was 2.27 µM.
In the case of `Cc1ccc(S(=O)(=O)N2CCCCN(S(=O)(=O)c3ccc(C)cc3)Cc3ccccc3OCCOCCOc3c4cccc3Cc3cccc5c3OCCOCCOc3ccccc3CN(S(=O)(=O)c3ccc(C)cc3)CCCN(S(=O)(=O)c3ccc(C)cc3)Cc3ccccc3OCCOCCOc3c(cccc3C4)Cc3cccc(c3OCCOCCOc3ccccc3C2)C5)cc1`, the TGI in the assay with M14 melanoma, in the assay on SK-OV-3 ovarian, in the assay on PC-3 prostate, in the assay with SNB-75 CNS, in the assay on HCT-116 colon and in the assay with RPMI-8226 leukemia was over 100 µM in each case. For the same compound, the TGI in the assay on MALME-3M melanoma, with NCI-H460 lung, in the assay with NCI-H23 lung, with KM12 colon and in the assay with DU-145 prostate was over 100 µM throughout.
As for `CCOC(=O)n1cncc1CC(NC(=O)Cc1c(C(=O)C=C(C)C)[nH]c2ccccc12)C(=O)OC` (configuration not stated), the TGI in the assay on M14 melanoma was 33.3 µM; in the assay with SK-OV-3 ovarian, 35.3 µM; in the assay with PC-3 prostate, 33.6 µM; in the assay on SNB-75 CNS, 49.7 µM; with HCT-116 colon, over 100 µM; with RPMI-8226 leukemia it was over 100 µM. Also, the TGI with MALME-3M melanoma came out at 32.8 µM; in the assay on NCI-H460 lung, 58 µM; in the assay with NCI-H23 lung it was 68.2 µM; in the assay with KM12 colon, 39.1 µM; in the assay with DU-145 prostate, 35.9 µM.
For the compound `COC1OC(CO)C(O)C(OC(=O)c2cc(O)c(O)c(O)c2)C1OC(=O)c1cc(O)c(O)c(O)c1` (configuration not stated), the TGI with M14 melanoma, with SK-OV-3 ovarian, with PC-3 prostate, in the assay on SNB-75 CNS, with HCT-116 colon and with RPMI-8226 leukemia was over 100 µM in each case. In addition, the TGI in the assay on MALME-3M melanoma, with NCI-H460 lung, in the assay with NCI-H23 lung, with KM12 colon and in the assay on DU-145 prostate was over 100 µM in each case.
As for `Cn1c2nc3ccccc3c-2cc2ccccc21`, the GI50 in the assay with M14 melanoma was 4.29 µM and 11.2 µM; with SNB-75 CNS, 3.22 µM and 13.4 µM; in the assay on HCT-116 colon, 1.8 µM and 4.57 µM; in the assay on RPMI-8226 leukemia it was 2.45 µM and 7.55 µM; in the assay on MALME-3M melanoma, 2.86 µM and 18.5 µM; in the assay on NCI-H23 lung, 3.35 µM and 10.6 µM. Moreover, the GI50 in the assay with KM12 colon was 2.19 µM and 6.02 µM. For the same compound, the TGI in the assay on M14 melanoma was > 42.2 µM and 23.6 µM; with SK-OV-3 ovarian, over 100 µM; in the assay with PC-3 prostate it was > 45.9 µM and 23.6 µM; in the assay on SNB-75 CNS it was 12.7 µM and 39.1 µM; with HCT-116 colon, over 100 µM; with RPMI-8226 leukemia it was 10.2 µM and 39 µM. For the same compound, the TGI is 12.8 µM and > 100 µM in the assay with MALME-3M melanoma; 11.9 µM and 12.9 µM in the assay with NCI-H460 lung; 11.5 µM and 23.2 µM in the assay on NCI-H23 lung; 11 µM and 46.4 µM with KM12 colon; over 100 µM with DU-145 prostate.
Turning to `COC(=N)C12C(N)=NC(OC)(OC)C1(C#N)C21C(=O)N(c2ccccc2)N=C1C` (configuration not stated), the TGI in the assay with M14 melanoma, with SK-OV-3 ovarian, with PC-3 prostate, in the assay with SNB-75 CNS, in the assay with HCT-116 colon and in the assay on RPMI-8226 leukemia was over 100 µM in each case. In addition, the TGI in the assay with MALME-3M melanoma, with NCI-H460 lung, in the assay with NCI-H23 lung, in the assay with KM12 colon and with DU-145 prostate was over 100 µM in each case.
On to `CCC(=O)COc1ccc(NC(NC(=O)C(C(F)(F)F)C(F)(F)F)(C(F)(F)F)C(F)(F)F)cc1`, for which the TGI in the assay with M14 melanoma was over 100 µM; in the assay on SK-OV-3 ovarian it was over 100 µM; with PC-3 prostate, over 100 µM; in the assay on SNB-75 CNS it was 75.3 µM; in the assay with HCT-116 colon it was 67.6 µM; in the assay with RPMI-8226 leukemia it was 52.8 µM. For the same compound, the TGI was 77.7 µM with MALME-3M melanoma; over 100 µM with NCI-H460 lung; over 100 µM in the assay with NCI-H23 lung; over 100 µM in the assay with KM12 colon; over 100 µM in the assay on DU-145 prostate.
For `COC(=O)[C@H](Cc1ccccc1)NC(=O)N1CCN(C(=O)N[C@@H](Cc2ccccc2)C(=O)OC)CCN(C(=O)N[C@@H](Cc2ccccc2)C(=O)OC)CC1`, the TGI with M14 melanoma, in the assay with SK-OV-3 ovarian, with PC-3 prostate, in the assay with SNB-75 CNS, in the assay on HCT-116 colon and with RPMI-8226 leukemia was over 100 µM in each case. The TGI with MALME-3M melanoma, with NCI-H460 lung, in the assay with NCI-H23 lung, in the assay with KM12 colon and with DU-145 prostate was over 100 µM throughout.
